{
  "source": "patent US8329904B2",
  "about": "“Azacyclic derivatives” (Hoffmann-La Roche Inc., priority 2009, dated 2012)",
  "data": [
    {"target": "T1, human HSL (Homo sapiens, UniProt Q05469)", "T1 construct": "overlapping PCR to generate a full length human HSL ORF with a 3′-His6 tag; His6 (C); made in house; host or cells: High 5 insect cells (baculovirus, pFast-BAC)", "T1 sequence (Q05469 1-1076)": "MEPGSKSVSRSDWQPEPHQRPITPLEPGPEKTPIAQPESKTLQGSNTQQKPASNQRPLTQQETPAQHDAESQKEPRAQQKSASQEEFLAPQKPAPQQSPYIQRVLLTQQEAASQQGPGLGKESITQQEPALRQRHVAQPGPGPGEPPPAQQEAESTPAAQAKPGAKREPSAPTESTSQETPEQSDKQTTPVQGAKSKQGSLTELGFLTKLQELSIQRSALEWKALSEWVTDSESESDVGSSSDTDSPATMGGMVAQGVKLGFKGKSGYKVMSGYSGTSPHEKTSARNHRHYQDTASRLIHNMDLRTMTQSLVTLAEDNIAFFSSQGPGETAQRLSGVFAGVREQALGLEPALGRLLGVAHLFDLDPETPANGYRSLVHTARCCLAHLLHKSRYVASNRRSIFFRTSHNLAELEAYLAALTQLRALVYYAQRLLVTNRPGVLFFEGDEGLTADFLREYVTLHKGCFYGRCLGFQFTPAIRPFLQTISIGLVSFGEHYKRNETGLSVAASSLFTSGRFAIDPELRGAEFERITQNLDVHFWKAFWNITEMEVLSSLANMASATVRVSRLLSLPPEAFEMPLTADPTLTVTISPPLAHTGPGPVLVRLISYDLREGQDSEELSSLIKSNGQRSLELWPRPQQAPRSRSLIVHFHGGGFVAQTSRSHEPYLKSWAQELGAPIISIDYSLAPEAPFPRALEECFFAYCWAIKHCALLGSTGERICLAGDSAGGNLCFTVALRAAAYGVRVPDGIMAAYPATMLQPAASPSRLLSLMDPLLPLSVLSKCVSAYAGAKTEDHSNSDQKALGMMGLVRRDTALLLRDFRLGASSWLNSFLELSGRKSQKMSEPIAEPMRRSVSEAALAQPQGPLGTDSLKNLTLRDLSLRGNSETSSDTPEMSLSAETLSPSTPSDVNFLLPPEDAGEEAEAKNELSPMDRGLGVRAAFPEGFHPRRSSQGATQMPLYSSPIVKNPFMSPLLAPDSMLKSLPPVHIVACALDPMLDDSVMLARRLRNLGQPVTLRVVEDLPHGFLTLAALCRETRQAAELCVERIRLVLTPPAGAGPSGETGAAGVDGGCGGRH", "test": "Human Hormone-Sensitive Lipase (HSL) Enzyme Inhibition Assay", "format": "biochemical", "conditions": "colorimetric assay, 2,3-dimercapto-1-propanol tributyrate (DMPT) substrate, 37° C. for 20 minutes, absorbance at 405 nm; read-out: HSL hum IC50", "in_short": "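Colorimetric thioester hydrolysis: compounds in DMSO series mixed with DMPT (1.5 mM) in MOPS pH 7.2 with BSA, then baculovirus-expressed His6-tagged full-length human HSL added, 37° C, 20 min. DTNB plus detergents added, 15 min room temperature, absorbance at 405 nm.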", "units": {"IC50": "nM"}, "values": [
      {"smiles": "Cn1cnc(S(=O)(=O)N2CCC3(CCN(c4ccc(OC(F)(F)F)cc4)C3=O)CC2)c1", "note": "[Example 181, 8-(1-Methyl-1H-imidazole-4-sulfonyl)-2-(4-trifluoromethoxy-phenyl)-2,8-diaza-spiro[4.5]decan-1-one]", "IC50": 260},
      {"smiles": "O=C1N(c2ccc(OC(F)(F)F)cc2)CCC12CCN(S(=O)(=O)N1CCCC1)CC2", "note": "[Example 182, 8-(Pyrrolidine-1-sulfonyl)-2-(4-trifluoromethoxy-phenyl)-2,8-diaza-spiro[4.5]decan-1-one]", "IC50": 90},
      {"smiles": "Cn1nccc1S(=O)(=O)N1CCC2(CCN(c3ccc(OC(F)(F)F)cc3)C2=O)CC1", "note": "[Example 183, 8-(2-Methyl-2H-pyrazole-3-sulfonyl)-2-(4-trifluoromethoxy-phenyl)-2,8-diaza-spiro[4.5]decan-1-one]", "IC50": 40},
      {"smiles": "Cn1ccc(S(=O)(=O)N2CCC3(CCN(c4ccc(OC(F)(F)F)cc4)C3=O)CC2)n1", "note": "[Example 184, 8-(1-Methyl-1H-pyrazole-3-sulfonyl)-2-(4-trifluoromethoxy-phenyl)-2,8-diaza-spiro[4.5]decan-1-one]", "IC50": 80},
      {"smiles": "Cc1oncc1S(=O)(=O)N1CCC2(CCN(c3ccc(OC(F)(F)F)cc3)C2=O)CC1", "note": "[Example 185, 8-(5-Methyl-isoxazole-4-sulfonyl)-2-(4-trifluoromethoxy-phenyl)-2,8-diaza-spiro[4.5]decan-1-one]", "IC50": 220},
      {"smiles": "Cc1noc(C)c1S(=O)(=O)N1CCC2(CCN(c3ccc(OC(F)(F)F)cc3)C2=O)CC1", "note": "[Example 186, 8-(3,5-Dimethyl-isoxazole-4-sulfonyl)-2-(4-trifluoromethoxy-phenyl)-2,8-diaza-spiro[4.5]decan-1-one]", "IC50": 110},
      {"smiles": "O=C1N(c2ccc(OC(F)(F)F)cc2)CCC12CCN(S(=O)(=O)c1cccnc1)CC2", "note": "[Example 187, 8-(Pyridine-3-sulfonyl)-2-(4-trifluoromethoxy-phenyl)-2,8-diaza-spiro[4.5]decan-1-one]", "IC50": 30},
      {"smiles": "O=C1N(c2ccc(OC(F)(F)F)cc2)CCC12CCN(S(=O)(=O)c1cccnc1Cl)CC2", "note": "[Example 188, 8-(2-Chloro-pyridine-3-sulfonyl)-2-(4-trifluoromethoxy-phenyl)-2,8-diaza-spiro[4.5]decan-1-one]", "IC50": 20},
      {"smiles": "CNc1ncccc1S(=O)(=O)N1CCC2(CCN(c3ccc(OC(F)(F)F)cc3)C2=O)CC1", "note": "[Example 189, 8-(2-Methylamino-pyridine-3-sulfonyl)-2-(4-trifluoromethoxy-phenyl)-2,8-diaza-spiro[4.5]decan-1-one]", "IC50": 30},
      {"smiles": "CN(C)c1ncccc1S(=O)(=O)N1CCC2(CCN(c3ccc(OC(F)(F)F)cc3)C2=O)CC1", "note": "[Example 190, 8-(2-Dimethylamino-pyridine-3-sulfonyl)-2-(4-trifluoromethoxy-phenyl)-2,8-diaza-spiro[4.5]decan-1-one]", "IC50": 20},
      {"smiles": "O=C1N(c2ccc(OC(F)(F)F)cc2)CCC12CCN(S(=O)(=O)c1cccnc1NC1CC1)CC2", "note": "[Example 191, 8-(2-Cyclopropylamino-pyridine-3-sulfonyl)-2-(4-trifluoromethoxy-phenyl)-2,8-diaza-spiro[4.5]decan-1-one]", "IC50": 80},
      {"smiles": "O=C1N(c2ccc(OC(F)(F)F)cc2)CCC12CCN(S(=O)(=O)c1cccnc1NCCO)CC2", "note": "[Example 192, 8-[2-(2-Hydroxy-ethylamino)-pyridine-3-sulfonyl]-2-(4-trifluoromethoxy-phenyl)-2,8-diaza-spiro[4.5]decan-1-one]", "IC50": 40},
      {"smiles": "CC(CO)Nc1ncccc1S(=O)(=O)N1CCC2(CCN(c3ccc(OC(F)(F)F)cc3)C2=O)CC1", "note": "(centres unmarked) [Example 193, 8-[2-(2-Hydroxy-1-methyl-ethylamino)-pyridine-3-sulfonyl]-2-(4-trifluoromethoxy-phenyl)-2,8-diaza-spiro[4.5]decan-1-one]", "IC50": 60},
      {"smiles": "COc1ncccc1S(=O)(=O)N1CCC2(CCN(c3ccc(OC(F)(F)F)cc3)C2=O)CC1", "note": "[Example 194, 8-(2-Methoxy-pyridine-3-sulfonyl)-2-(4-trifluoromethoxy-phenyl)-2,8-diaza-spiro[4.5]decan-1-one]", "IC50": 20},
      {"smiles": "O=C1N(c2ccc(OC(F)(F)F)cc2)CCC12CCN(S(=O)(=O)c1cccnc1OCc1ccccc1)CC2", "note": "[Example 195, 8-(2-Benzyloxy-pyridine-3-sulfonyl)-2-(4-trifluoromethoxy-phenyl)-2,8-diaza-spiro[4.5]decan-1-one]", "IC50": 50},
      {"smiles": "O=C1N(c2ccc(OC(F)(F)F)cc2)CCC12CCN(S(=O)(=O)c1cccnc1O)CC2", "note": "[Example 196, 8-(2-Hydroxy-pyridine-3-sulfonyl)-2-(4-trifluoromethoxy-phenyl)-2,8-diaza-spiro[4.5]decan-1-one]", "IC50": 230},
      {"smiles": "Nc1ncccc1S(=O)(=O)N1CCC2(CCN(c3ccc(OC(F)(F)F)cc3)C2=O)CC1", "note": "[Example 197, 8-(2-Amino-pyridine-3-sulfonyl)-2-(4-trifluoromethoxy-phenyl)-2,8-diaza-spiro[4.5]decan-1-one]", "IC50": 80},
      {"smiles": "O=C1N(c2ccc(OC(F)(F)F)cc2)CCC12CCN(S(=O)(=O)c1ccc(Cl)nc1)CC2", "note": "[Example 198, 8-(6-Chloro-pyridine-3-sulfonyl)-2-(4-trifluoromethoxy-phenyl)-2,8-diaza-spiro[4.5]decan-1-one]", "IC50": 150},
      {"smiles": "O=C1N(c2ccc(OC(F)(F)F)cc2)CCC12CCN(S(=O)(=O)c1cnccc1Cl)CC2", "note": "[Example 199, 8-(4-Chloro-pyridine-3-sulfonyl)-2-(4-trifluoromethoxy-phenyl)-2,8-diaza-spiro[4.5]decan-1-one]", "IC50": 140},
      {"smiles": "COc1ccncc1S(=O)(=O)N1CCC2(CCN(c3ccc(OC(F)(F)F)cc3)C2=O)CC1", "note": "[Example 200, 8-(4-M ethoxy-pyridine-3-sulfonyl)-2-(4-trifluoromethoxy-phenyl)-2,8-diaza-spiro[4.5]decan-1-one]", "IC50": 170},
      {"smiles": "O=C1N(c2ccc(OC(F)(F)F)cc2)CCC12CCN(S(=O)(=O)c1ccccn1)CC2", "note": "[Example 201, 8-(Pyridine-2-sulfonyl)-2-(4-trifluoromethoxy-phenyl)-2,8-diaza-spiro[4.5]decan-1-one]", "IC50": 50},
      {"smiles": "O=C1N(c2ccc(OC(F)(F)F)cc2)CCC12CCN(S(=O)(=O)c1ncccn1)CC2", "note": "[Example 202, 8-(Pyrimidine-2-sulfonyl)-2-(4-trifluoromethoxy-phenyl)-2,8-diaza-spiro[4.5]decan-1-one]", "IC50": 160},
      {"smiles": "O=C1N(c2ccc(OC(F)(F)F)cc2)CCC12CCN(S(=O)(=O)c1ccncc1)CC2", "note": "[Example 203, 8-(Pyridine-4-sulfonyl)-2-(4-trifluoromethoxy-phenyl)-2,8-diaza-spiro[4.5]decan-1-one]", "IC50": 250},
      {"smiles": "Cc1ccc(S(=O)(=O)N2CCC3(CCN(c4ccc(OC(F)(F)F)cc4)C3=O)CC2)nn1", "note": "[Example 204, 8-(6-Methyl-pyridazine-3-sulfonyl)-2-(4-trifluoromethoxy-phenyl)-2,8-diaza-spiro[4.5]decan-1-one]", "IC50": 140},
      {"smiles": "O=C1N(c2ccc(OCC(F)(F)F)cc2)CCC12CCN(S(=O)(=O)c1cccnc1)CC2", "note": "[Example 205, 8-(Pyridine-3-sulfonyl)-2-[4-(2,2,2-trifluoro-ethoxy)-phenyl]-2,8-diaza-spiro[4.5]decan-1-one]", "IC50": 60},
      {"smiles": "O=C1N(c2ccc(OCC(F)(F)F)cc2)CCC12CCN(S(=O)(=O)c1cccnc1Cl)CC2", "note": "[Example 206, 8-(2-Chloro-pyridine-3-sulfonyl)-2-[4-(2,2,2-trifluoro-ethoxy)-phenyl]-2,8-diaza-spiro[4.5]decan-1-one]", "IC50": 30},
      {"smiles": "CNc1ncccc1S(=O)(=O)N1CCC2(CCN(c3ccc(OCC(F)(F)F)cc3)C2=O)CC1", "note": "[Example 207, 8-(2-Methylamino-pyridine-3-sulfonyl)-2-[4-(2,2,2-trifluoro-ethoxy)-phenyl]-2,8-diaza-spiro[4.5]decan-1-one]", "IC50": 60},
      {"smiles": "O=C1N(c2ccc(OC(F)(F)F)cc2)CCC12CCN(S(=O)(=O)CC(O)C1CC1)CC2", "note": "(centres unmarked) [Example 208, 8-(2-Cyclopropyl-2-hydroxy-ethanesulfonyl)-2-(4-trifluoromethoxy-phenyl)-2,8-diaza-spiro[4.5]decan-1-one]", "IC50": 160},
      {"smiles": "COC(CS(=O)(=O)N1CCC2(CCN(c3ccc(OC(F)(F)F)cc3)C2=O)CC1)C1CC1", "note": "(centres unmarked) [Example 209, 8-(2-Cyclopropyl-2-methoxy-ethanesulfonyl)-2-(4-trifluoromethoxy-phenyl)-2,8-diaza-spiro[4.5]decan-1-one]", "IC50": 50}
    ]}
  ]
}
